System: B6CBA-Tg(HDexon1)62Gpb/1J transgenic (R6/2) mice
Experiment: Simplified Irwin test in transgenic mice model of Huntington's disease
Type: in vivo
Protocol: B6CBA-Tg(HDexon1)62Gpb/1J transgenic (R6/2) mice are transgenic for the 5-end of the human HD gene carrying (CAG) 115-(CAG) 150 repeat expansions. […] These symptoms appear between 6 and 8 weeks of age. […] Female B6CBa-Tg(HDexon1)62Gpb/1J transgenic mice (Jackson Laboratory, USA) were housed 5 per cage in an enriched environment under a light-dark cycle of 12 h-12 h (light on at 7.00 am, off at 7.00 pm) at a room temperature of 21±2° C., with 50±15% humidity. The mice had access to commercial mouse chow (mouse/rate breeding, ref. 9341 Provimi Kliba, Switzerland) and tap water. […] Two hours before the observations, animals were placed in individual cages. Measurements were first carried out in the individual cages. The animal's convulsions, tremors-twitches, stereotypies and vocalizations were recorded. The animal was then placed in a 58.5×68.5 cm open field with a 6 cm rim and observed for approximately 3 minutes. Gait characteristics were ranked. The presence of convulsions or tremors-twitches and stereotypies was again noted. At the end of the 3 minutes, the number of faecal boluses and pools of urine was recorded. The mice were then returned to their individual cages after testing. Group 1: hemizygote Transgenic B6CBA-Tg(HDexon 1)62Gpb/1J mice treated with vehicle i.p. once a day for 4 days (from day 0 to day 3) Group 2: hemizygote Transgenic B6CBA-Tg(HDexon 1)62Gpb/1J mice treated with 5 mg/kg i.p. of test item once a day for 4 days (from day 0 to day 3) […] • Test item administration • Simplified Irwin test, 40 minutes after administration • Rotarod test, immediately after the simplified Irwin test • Test item administration • Simplified Irwin test, 40 min after administration • Rotarod test, immediately after simplified #Irwin test • Test item administration • Simplified Irwin test, 40 min after administration • Locomotor activity test, immediately after the simplified Irwin test Simplified Irwin scores were analysed using non-parametric Mann-Whitney's U test. Locomotor activity data were analysed using Dunnett's t-test. Rotarod scores were analysed using the non-parametric Mann-Whitney's U-test. Statistical analyses were performed using the software Statview SE^+graphics software, Brain Power.

[1] = home cage, Day 0 after administration, 5 mg/kg i.p. once a day Day 0-3
[2] = home cage, Day 0 before administration, 5 mg/kg i.p. once a day Day 0-3
[3] = home cage, Day 1, 5 mg/kg i.p. once a day Day 0-3
[4] = home cage, Day 2, 5 mg/kg i.p. once a day Day 0-3
[5] = home cage, Day 3, 5 mg/kg i.p. once a day Day 0-3
[6] = open field, Day 0 after administration, 5 mg/kg i.p. once a day Day 0-3
[7] = open field, Day 0 before administration, 5 mg/kg i.p. once a day Day 0-3
[8] = open field, Day 1, 5 mg/kg i.p. once a day Day 0-3
[9] = open field, Day 2, 5 mg/kg i.p. once a day Day 0-3
[10] = open field, Day 3, 5 mg/kg i.p. once a day Day 0-3
[11] = open field, Day 17, 5 mg/kg i.p. once a day Day 0-3
[12] = open field, Day 21, 5 mg/kg i.p. once a day Day 0-3
[13] = open field, Day 24, 5 mg/kg i.p. once a day Day 0-3
[14] = open field, Day 27, 5 mg/kg i.p. once a day Day 0-3
[15] = open field, Day 31, 5 mg/kg i.p. once a day Day 0-3
[16] = period of 17 to 24 days after administration

COc1cc2c(cc1OC)[C@H]1C[C@H](O)[C@@H](CC(C)C)CN1CC2 (single isomer, unassigned) [Isomer B]
incidences of involuntary movements such as involuntary chorea, tremors and twitches (after 21 days versus prior to administration): no worse after 21 days than they had been prior to administration | Convulsions [1]: 0.13 | Grooming [1]: 7.38 s | Stereotypies [1]: — (Sign never observed (equivalent to 0.00 ± 0.00)) | Tremors-Twitches [1]: 1.13 | Vocalization [1]: — (Sign never observed (equivalent to 0.00 ± 0.00)) | Convulsions [2]: 0.22 | Grooming [2]: 10.00 s | Stereotypies [2]: — (Sign never observed (equivalent to 0.00 ± 0.00)) | Tremors-Twitches [2]: 1.44 | Vocalization [2]: — (Sign never observed (equivalent to 0.00 ± 0.00)) | Convulsions [3]: — (Sign never observed (equivalent to 0.00 ± 0.00)) | Grooming (sec) [3]: — (Sign never observed (equivalent to 0.00 ± 0.00)) | Stereotypies [3]: — (Sign never observed (equivalent to 0.00 ± 0.00)) | Tremors-Twitches [3]: 1.00 | Vocalization [3]: — (Sign never observed (equivalent to 0.00 ± 0.00)) | Convulsions [4]: — (Sign never observed (equivalent to 0.00 ± 0.00)) | Grooming [4]: 7.78 s | Stereotypies [4]: — (Sign never observed (equivalent to 0.00 ± 0.00)) | Tremors-Twitches [4]: 0.78 | Vocalization [4]: — (Sign never observed (equivalent to 0.00 ± 0.00)) | Convulsions [5]: 0.11 | Grooming [5]: 4.22 s | Stereotypies [5]: — (Sign never observed (equivalent to 0.00 ± 0.00)) | Tremors-Twitches [5]: 1.00 | Vocalization [5]: — (Sign never observed (equivalent to 0.00 ± 0.00)) | Convulsions [6]: 0.67 | Defecation (N° of boluses) [6]: 1.44 N° of boluses | Gait [6]: 0.33 | Grooming [6]: 3.11 s | Stereotypies [6]: 0.11 | Tremors-Twitches [6]: 1.89 | Urination (N° of pools) [6]: 0.44 N° of pools | Vocalisation [6]: 0.22 | Convulsions [7]: — (Sign never observed (equivalent to 0.00 ± 0.00)) | Defecation (N° of boluses) [7]: 2.56 N° of boluses | Gait [7]: 1.11 | Grooming [7]: 19.44 s | Stereotypies [7]: — (Sign never observed (equivalent to 0.00 ± 0.00)) | Tremors-Twitches [7]: 2.11 | Urination (N° of pools) [7]: 0.67 N° of pools | Vocalisation [7]: 0.44 | Convulsions [8]: 0.11 | Defecation (N° of boluses) [8]: 0.89 N° of boluses | Gait [8]: 1.00 | Grooming [8]: 7.78 s | Stereotypies [8]: — (Sign never observed (equivalent to 0.00 ± 0.00)) | Tremors-Twitches [8]: 2.33 | Urination (N° of pools) [8]: 0.11 N° of pools | Vocalisation [8]: 0.67 | Convulsions [9]: — (Sign never observed (equivalent to 0.00 ± 0.00)) | Defecation (N° of boluses) [9]: 1.22 N° of boluses | Gait [9]: 0.67 | Grooming [9]: 20.56 s | Stereotypies [9]: — (Sign never observed (equivalent to 0.00 ± 0.00)) | Tremors-Twitches [9]: 2.00 | Urination (N° of pools) [9]: 0.33 N° of pools | Vocalisation [9]: 0.89 | Convulsions [10]: — (Sign never observed (equivalent to 0.00 ± 0.00)) | Defecation (N° of boluses) [10]: 1.33 N° of boluses | Gait [10]: 2.33 | Grooming [10]: 12.67 s | Stereotypies [10]: — (Sign never observed (equivalent to 0.00 ± 0.00)) | Tremors-Twitches [10]: 1.78 | Urination (N° of pools) [10]: 0.11 N° of pools | Vocalisation [10]: 0.89 | Convulsions [11]: 0.67 | Defecation (N° of boluses) [11]: 2.67 N° of boluses | Gait [11]: 1.56 | Grooming [11]: 20.33 s | Stereotypies [11]: — (Sign never observed (equivalent to 0.00 ± 0.00)) | Tremors-Twitches [11]: 1.44 | Urination (N° of pools) [11]: 0.22 N° of pools | Vocalisation [11]: 0.22 | Convulsions [12]: — (Sign never observed (equivalent to 0.00 ± 0.00)) | Defecation (N° of boluses) [12]: 2.44 N° of boluses | Gait [12]: 1.67 | Grooming [12]: 17.67 s | Stereotypies [12]: — (Sign never observed (equivalent to 0.00 ± 0.00)) | Tremors-Twitches [12]: 1.67 | Urination (N° of pools) [12]: 0.11 N° of pools | Vocalisation [12]: 0.44 | Convulsions [13]: — (Sign never observed (equivalent to 0.00 ± 0.00)) | Defecation (N° of boluses) [13]: 1.33 N° of boluses | Gait [13]: 2.17 | Grooming [13]: 18.22 s | Stereotypies [13]: — (Sign never observed (equivalent to 0.00 ± 0.00)) | Tremors-Twitches [13]: 2.44 | Urination (N° of pools) [13]: 0.33 N° of pools | Vocalisation [13]: 0.44 | Convulsions [14]: — (Sign never observed (equivalent to 0.00 ± 0.00)) | Defecation (N° of boluses) [14]: 2.33 N° of boluses | Gait [14]: 2.56 | Grooming [14]: 25.33 s | Stereotypies [14]: — (Sign never observed (equivalent to 0.00 ± 0.00)) | Tremors-Twitches [14]: 2.11 | Urination (N° of pools) [14]: 0.44 N° of pools | Vocalisation [14]: 0.00 | Convulsions [15]: — (Sign never observed (equivalent to 0.00 ± 0.00)) | Defecation (N° of boluses) [15]: 1.44 N° of boluses | Gait [15]: 2.33 | Grooming [15]: 19.11 s | Stereotypies [15]: — (Sign never observed (equivalent to 0.00 ± 0.00)) | Tremors-Twitches [15]: 2.67 | Urination (N° of pools) [15]: 0.11 N° of pools | Vocalisation [15]: 0.22 | deterioration (progression of symptoms) versus control mice [16]: significantly less deterioration than the control mice | deterioration in gait [16]: substantially arrested or slowed | progression of symptoms of Huntington's disease (involuntary movements, deterioration in gait) (transgenic mouse model of Huntington's disease): shown to arrest the progression of a number of symptoms of Huntington's disease

— US20080319000A1, “Use of 3,1IB-Cis-Dihydrotetrabenazine for the Treatment of Symptoms of Huntingtons Disease” (CAMBRIDGE LABORATORIES (IRELAND) LIMITED, priority 2005, published 2008)
